Literature values in patent publication US20090061517A1, “Cell culture apparatus and methods of making and using same” (priority 2007, published 2009).

Conditions: in humans

Compound | idiosyncratic hepatotoxicity / idiosyncratic adverse drug reactions
N[C@@H]1[C@H]2CN(c3nc4c(cc3F)c(=O)c(C(=O)O)cn4-c3ccc(F)cc3F)C[C@@H]12 [trovafloxacin] | linked to idiosyncratic hepatotoxicity in humans
C[C@H]1COc2c(N3CCN(C)CC3)c(F)cc3c(=O)c(C(=O)O)cn1c23 [levofloxacin] | without liability for causing idiosyncratic adverse drug reactions
